Results on 24 compounds are retold here after patent publication US20250289804A1, “SUBSTITUTED INDOLE COMPOUNDS AND METHODS OF USE THEREOF” (NOVARTIS PHARMA AG, priority 2021, published 2025).

The structures appear in SMILES notation. Like-named read-outs stand apart in the source and are kept apart here.

For one assay, the target named is human C3bBb (Homo sapiens (Human), UniProt P00751). Put plainly: Human C3bBb enzyme assay (C3a generation from C3, ELISA). Format: biochemical. To be noted: read-out: Human C3b:Bb IC50 Avg. In a few lines: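 C3bBb was preformed from human C3b, CFB and CFD at 1 μM each (30 min, RT) in PBS pH 7.4 with 100 μM NiCl2 and 0.05% CHAPS. Then 3 nM complex with 1 μM human C3 was incubated with compound for 1 h at RT. C3a was quantified by ELISA against a standard curve, and IC50 came from a 10-point 4-parameter fit.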
In general terms: ELISA stands for enzyme-linked immunosorbent assay.

Assay [1] has as its system MAC formation in normal human serum. Put plainly: Human serum MAC formation assay (zymosan-coated plates, 50% normal human serum). Conditions: 50% normal human serum with EGTA, 37° C. 30 minutes. In a few lines:
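Compounds preincubated 15 min at RT with 50% normal human serum in gelatin buffer plus 20 mM EGTA, then complement activated 30 min at 37 °C on zymosan-coated plates. C9 neoepitope ELISA, fluorogenic readout. Percent inhibition vs EDTA-serum baseline and EGTA-serum maximum; IC50 from 4-parameter fit of 10-point curves.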

The mark [2] stands for this setting: starred values: assay conducted with 1 nM C3b:Bb enzyme.
The mark [3] stands for this setting: 3 nM C3bBb complex, 1 μM human C3, 1 hour room temperature.

Sequence of human C3bBb (P00751 260-764): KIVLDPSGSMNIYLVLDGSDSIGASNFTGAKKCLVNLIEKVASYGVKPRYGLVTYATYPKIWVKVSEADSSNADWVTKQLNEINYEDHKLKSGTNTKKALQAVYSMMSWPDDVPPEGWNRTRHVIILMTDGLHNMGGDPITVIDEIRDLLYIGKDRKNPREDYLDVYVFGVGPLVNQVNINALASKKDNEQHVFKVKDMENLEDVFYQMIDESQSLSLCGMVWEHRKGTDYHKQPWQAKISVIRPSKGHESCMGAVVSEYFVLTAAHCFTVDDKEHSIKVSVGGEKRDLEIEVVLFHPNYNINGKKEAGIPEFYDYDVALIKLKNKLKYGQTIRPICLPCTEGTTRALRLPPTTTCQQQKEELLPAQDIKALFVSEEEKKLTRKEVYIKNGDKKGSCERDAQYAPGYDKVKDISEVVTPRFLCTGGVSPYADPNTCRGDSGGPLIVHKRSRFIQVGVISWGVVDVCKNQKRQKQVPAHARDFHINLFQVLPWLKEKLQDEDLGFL
Sequence of human C3bBb (P01024 23-667 partner): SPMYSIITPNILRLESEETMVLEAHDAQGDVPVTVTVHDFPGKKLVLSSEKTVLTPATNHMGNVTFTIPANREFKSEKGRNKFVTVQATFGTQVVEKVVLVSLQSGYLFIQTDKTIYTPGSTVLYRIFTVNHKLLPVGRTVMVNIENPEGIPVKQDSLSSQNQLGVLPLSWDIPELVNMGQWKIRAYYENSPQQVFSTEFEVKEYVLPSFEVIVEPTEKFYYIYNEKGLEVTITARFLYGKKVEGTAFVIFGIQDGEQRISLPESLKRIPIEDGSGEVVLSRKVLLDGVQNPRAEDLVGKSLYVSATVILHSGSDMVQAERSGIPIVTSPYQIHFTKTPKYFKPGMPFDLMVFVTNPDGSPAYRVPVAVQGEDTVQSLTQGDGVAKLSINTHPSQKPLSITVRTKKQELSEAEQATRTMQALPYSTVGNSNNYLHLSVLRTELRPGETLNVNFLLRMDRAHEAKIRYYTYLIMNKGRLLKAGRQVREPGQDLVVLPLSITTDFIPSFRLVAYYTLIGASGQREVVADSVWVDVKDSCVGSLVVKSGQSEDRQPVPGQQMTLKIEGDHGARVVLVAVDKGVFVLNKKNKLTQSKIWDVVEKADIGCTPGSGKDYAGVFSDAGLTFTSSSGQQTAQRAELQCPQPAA
Sequence of human C3bBb (P01024 749-1663 partner): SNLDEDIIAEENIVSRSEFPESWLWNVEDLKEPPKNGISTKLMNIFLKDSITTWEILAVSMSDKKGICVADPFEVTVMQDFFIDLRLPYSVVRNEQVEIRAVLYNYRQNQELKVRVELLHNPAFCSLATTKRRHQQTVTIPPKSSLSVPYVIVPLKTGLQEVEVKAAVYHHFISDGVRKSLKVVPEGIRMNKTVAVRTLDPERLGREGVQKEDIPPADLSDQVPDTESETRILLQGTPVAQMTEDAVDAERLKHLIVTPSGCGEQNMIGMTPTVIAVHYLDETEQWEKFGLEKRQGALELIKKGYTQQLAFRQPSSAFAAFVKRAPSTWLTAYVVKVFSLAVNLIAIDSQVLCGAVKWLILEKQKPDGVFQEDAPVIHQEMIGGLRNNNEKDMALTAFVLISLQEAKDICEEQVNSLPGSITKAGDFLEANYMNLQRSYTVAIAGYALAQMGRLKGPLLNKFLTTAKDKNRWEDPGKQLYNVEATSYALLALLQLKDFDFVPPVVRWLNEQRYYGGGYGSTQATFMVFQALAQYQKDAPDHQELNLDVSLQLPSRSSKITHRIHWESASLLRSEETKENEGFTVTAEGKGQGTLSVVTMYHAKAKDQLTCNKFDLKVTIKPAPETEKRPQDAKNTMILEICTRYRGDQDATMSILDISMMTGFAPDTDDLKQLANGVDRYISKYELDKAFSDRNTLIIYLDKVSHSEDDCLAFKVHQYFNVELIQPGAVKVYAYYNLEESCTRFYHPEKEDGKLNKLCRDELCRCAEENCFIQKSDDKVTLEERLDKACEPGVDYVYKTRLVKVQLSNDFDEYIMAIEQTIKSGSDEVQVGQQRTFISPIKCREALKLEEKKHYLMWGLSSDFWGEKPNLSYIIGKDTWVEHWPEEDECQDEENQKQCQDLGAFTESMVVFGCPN

Take `COc1cc(C)c2[nH]ccc2c1CN1CC[C@H](N2CCCC2=O)C[C@H]1c1ccc(C(=O)O)cc1` [Example 13, 4-((2S,4S)-1-((5-methoxy-7-methyl-1H-indol-4-yl)methyl)-4-(2-oxopyrrolidin-1-yl)piperidin-2-yl)benzoic acid]: the results for the IC50 (at human C3bBb (setting [2]); in assay [1]) were 50 to 100 nM and 100 to 200 nM, respectively.

`COc1cc(C)c2[nH]ccc2c1CN1CC[C@H](n2cccn2)C[C@H]1c1ccc(C(=O)O)cc1` (racemic) [Example 9, (±)-trans-4-(1-((5-methoxy-7-methyl-1H-indol-4-yl)methyl)-4-(1H-pyrazol-1-yl)piperidin-2-yl)benzoic acid]: the 50% inhibitory concentration (IC50) (usually the midpoint of a concentration-inhibition curve) at human C3bBb (setting [3]) was > 100 nM; in assay [1] it was > 500 nM.

In the case of `COc1cc(C)c2[nH]ccc2c1CN1CC[C@]2(C[C@H]1c1ccc(C(=O)O)cc1)C[C@@H](C#N)C2` (single isomer, unassigned) [Example 55, 4-((2R,4s,6S)-2-cyano-7-((5-methoxy-7-methyl-1H-indol-4-yl)methyl)-7-azaspiro[3.5]nonan-6-yl)benzoic acid or 4-((2S,4r,6S)-2-cyano-7-((5-methoxy-7-methyl-1H-indol-4-yl)methyl)-7-azaspiro[3.5]nonan-6-yl)benzoic acid], the values for the IC50 (on human C3bBb (setting [2]); in assay [1]) were < 10 nM and < 100 nM, respectively.

With `COc1cc(C)c2[nH]ccc2c1CN1CC[C@H](NCC2(F)CC2)C[C@H]1c1ccc(C(=O)O)cc1` [Example 23, 4-((2S,4S)-4-(((1-fluorocyclopropyl)methyl)amino)-1-((5-methoxy-7-methyl-1H-indol-4-yl)methyl)piperidin-2-yl)benzoic acid], the IC50 at human C3bBb (setting [2]) is 50 to 100 nM; in assay [1] it was 300 to 500 nM.

`COc1cc(C)c2[nH]ccc2c1CN1CC[C@@]2(CCOC2)C[C@H]1c1ccc(C(=O)O)cc1` (single isomer, unassigned) [Example 34, 4-((5S,7S)-8-((5-methoxy-7-methyl-1H-indol-4-yl)methyl)-2-oxa-8-azaspiro[4.5]decan-7-yl)benzoic acid or 4-((5R,7S)-8-((5-methoxy-7-methyl-1H-indol-4-yl)methyl)-2-oxa-8-azaspiro[4.5]decan-7-yl)benzoic acid]: the IC50 at human C3bBb (setting [2]) was < 10 nM; in assay [1], 100 to 200 nM.

As to `COc1cc(C)c2[nH]ccc2c1CN1CC[C@H](NC2COC2)C[C@H]1c1ccc(C(=O)O)cc1` [Example 18, 4-((2S,4S)-1-((5-methoxy-7-methyl-1H-indol-4-yl)methyl)-4-(oxetan-3-ylamino)piperidin-2-yl)benzoic acid], the concentration for half-maximal inhibition (IC50) on human C3bBb (setting [2]) is < 10 nM; in assay [1] it was 100 to 200 nM.

`COc1cc(C)c2[nH]ccc2c1CN1CC[C@]2(C[C@H]1c1ccc(C(=O)O)cc1)C[C@@H](OC(F)F)C2` (single isomer, unassigned) [Example 56, 4-((2R,4s,6S)-2-(difluoromethoxy)-7-((5-methoxy-7-methyl-1H-indol-4-yl)methyl)-7-azaspiro[3.5]nonan-6-yl)benzoic acid or 4-((2S,4r,6S)-2-(difluoromethoxy)-7-((5-methoxy-7-methyl-1H-indol-4-yl)methyl)-7-azaspiro[3.5]nonan-6-yl)benzoic acid]: the results for the IC50 (on human C3bBb (setting [2]); in assay [1]) were < 10 nM and < 100 nM, respectively.

As for `COc1cc(C)c2[nH]ccc2c1CN1CC[C@H](OC(F)F)C[C@H]1c1ccc(C(=O)O)cc1` [Example 28, 4-((2S,4S)-4-(difluoromethoxy)-1-((5-methoxy-7-methyl-1H-indol-4-yl)methyl)piperidin-2-yl)benzoic acid], the IC50 on human C3bBb (setting [2]) is < 10 nM; in assay [1] it was 100 to 200 nM.

As to `COc1cc(C)c2[nH]ccc2c1CN1CC[C@H](N2CC(OC(F)(F)F)C2)C[C@H]1c1ccc(C(=O)O)cc1` [Example 72, 4-((2S,4S)-1-((5-methoxy-7-methyl-1H-indol-4-yl)methyl)-4-(3-(trifluoromethoxy)azetidin-1-yl)piperidin-2-yl)benzoic acid], the IC50 at human C3bBb (setting [2]) was 25 to 50 nM; in assay [1], 200 to 300 nM.

On to `COc1cc(C)c2[nH]ccc2c1CN1CC[C@H](NC2CC(F)(F)C2)C[C@H]1c1ccc(C(=O)O)cc1` [Example 19, 4-((2S,4S)-4-((3,3-difluorocyclobutyl)amino)-1-((5-methoxy-7-methyl-1H-indol-4-yl)methyl)piperidin-2-yl)benzoic acid], for which the IC50 is < 10 nM on human C3bBb (setting [2]) and < 100 nM in assay [1].

In the case of `COc1cc(C)c2[nH]ccc2c1CN1CC[C@]2(C[C@H]1c1ccc(C(=O)O)cc1)C[C@@H](F)C2` (single isomer, unassigned) [Example 62, 4-((2R,4s,6S)-2-fluoro-7-((5-methoxy-7-methyl-1H-indol-4-yl)methyl)-7-azaspiro[3.5]nonan-6-yl)benzoic acid or 4-((2S,4r,6S)-2-fluoro-7-((5-methoxy-7-methyl-1H-indol-4-yl)methyl)-7-azaspiro[3.5]nonan-6-yl)benzoic acid], the IC50 on human C3bBb (setting [2]) is < 10 nM; in assay [1], < 100 nM.

As to `Cc1cc(C2CC2)c(CN2CC[C@H](N3CC(C(F)(F)F)C3)C[C@H]2c2ccc(C(=O)O)cc2)c2cc[nH]c12` [Example 76, 4-((2S,4S)-1-((5-cyclopropyl-7-methyl-1H-indol-4-yl)methyl)-4-(3-(trifluoromethyl)azetidin-1-yl)piperidin-2-yl)benzoic acid], the half-maximal inhibitory concentration (IC50) at human C3bBb (setting [2]) is < 10 nM; in assay [1], 100 to 200 nM.

On to `COc1cc(C)c2[nH]ccc2c1CN1CCC2(C[C@H]1c1ccc(C(=O)O)cc1)CC(F)(F)C2` [Example 45, (S)-4-(2,2-difluoro-7-((5-methoxy-7-methyl-1H-indol-4-yl)methyl)-7-azaspiro[3.5]nonan-6-yl)benzoic acid], for which the IC50 was < 10 nM on human C3bBb (setting [2]) and < 100 nM in assay [1].

As for `COc1cc(C)c2[nH]ccc2c1CN1CC[C@H](NC2CC(F)(F)C2)C[C@H]1c1ccc(C(=O)O)cc1` [Example 24, 4-((2S,4S)-4-((3,3-difluorocyclobutyl)amino)-1-((5-methoxy-7-methyl-1H-indol-4-yl)methyl)piperidin-2-yl)benzoic acid], the IC50 at human C3bBb (setting [2]) is 10 to 25 nM; in assay [1] it was 200 to 300 nM.

On to `COc1cc(C)c2[nH]ccc2c1CN1CC[C@H](n2cc(F)cn2)C[C@H]1c1ccc(C(=O)O)cc1` [Example 1, 4-((2S,4S)-4-(4-fluoro-1H-pyrazol-1-yl)-1-((5-methoxy-7-methyl-1H-indol-4-yl)methyl)piperidin-2-yl)benzoic acid], for which the IC50 at human C3bBb (setting [3]) is 50 to 100 nM; in assay [1], > 500 nM.

For the compound `COc1cc(C)c2[nH]ccc2c1CN1CC[C@H](NCC2CC2)C[C@H]1c1ccc(C(=O)O)cc1` [Example 26, 4-((2S,4S)-4-((cyclopropylmethyl)amino)-1-((5-methoxy-7-methyl-1H-indol-4-yl)methyl)piperidin-2-yl)benzoic acid], the IC50 lay within 50 to 100 nM at human C3bBb (setting [2]) and 100 to 200 nM in assay [1].

As for `COc1cc(C)c2[nH]ccc2c1CN1CC[C@@H](OC(F)F)C[C@@H]1c1ccc(C(=O)O)cc1` [Example 29, 4-((2R,4R)-4-(difluoromethoxy)-1-((5-methoxy-7-methyl-1H-indol-4-yl)methyl)piperidin-2-yl)benzoic acid], the IC50 at human C3bBb (setting [3]) was > 100 nM; in assay [1], > 500 nM.

On to `COc1cc(C)c2[nH]ccc2c1CN1CC[C@H](N2CC(C(F)(F)F)C2)C[C@H]1c1ccc(C(=O)O)cc1` [Example 81, 4-((2S,4S)-1-((5-methoxy-7-methyl-1H-indol-4-yl)methyl)-4-(3-(trifluoromethyl)azetidin-1-yl)piperidin-2-yl)benzoic acid], for which the values for the IC50 (on human C3bBb (setting [2]); in assay [1]) were < 10 nM and < 100 nM, respectively.

For the compound `COc1cc(C)c2[nH]ccc2c1CN1CC[C@H](OC2CCC2)C[C@H]1c1ccc(C(=O)O)cc1` [Example 84, 4-((2S,4S)-4-cyclobutoxy-1-((5-methoxy-7-methyl-1H-indol-4-yl)methyl)piperidin-2-yl)benzoic acid], the IC50 on human C3bBb (setting [2]) fell in the range of 25 to 50 nM; in assay [1], 200 to 300 nM.

For `COc1cc(C)c2[nH]ccc2c1CN1CCC2(COC2)C[C@H]1c1ccc(C(=O)O)cc1` [Example 32, (S)-4-(7-((5-methoxy-7-methyl-1H-indol-4-yl)methyl)-2-oxa-7-azaspiro[3.5]nonan-6-yl)benzoic acid], the IC50 on human C3bBb (setting [2]) was < 10 nM; in assay [1], < 100 nM.

For `COc1cc(C)c2[nH]ccc2c1CN1CC[C@H](OCC(F)(F)F)C[C@H]1c1ccc(C(=O)O)cc1` [Example 85, 4-((2S,4S)-1-((5-methoxy-7-methyl-1H-indol-4-yl)methyl)-4-(2,2,2-trifluoroethoxy)piperidin-2-yl)benzoic acid], the half-maximal inhibitory concentration (IC50) is < 10 nM at human C3bBb (setting [2]) and 100 to 200 nM in assay [1].

As for `COc1cc(C)c2[nH]ccc2c1CN1CC[C@H](n2cc(C(F)F)cn2)C[C@H]1c1ccc(C(=O)O)cc1` (racemic) [Example 7, (±)-trans-4-(4-(4-(difluoromethyl)-1H-pyrazol-1-yl)-1-((5-methoxy-7-methyl-1H-indol-4-yl)methyl)piperidin-2-yl)benzoic acid], the IC50 at human C3bBb (setting [2]) is < 10 nM; in assay [1], 100 to 200 nM.

In the case of `COc1cc(C)c2[nH]ccc2c1CN1CC[C@H](n2cc(C#N)cn2)C[C@H]1c1ccc(C(=O)O)cc1` [Example 10, 4-((2S,4S)-4-(4-cyano-1H-pyrazol-1-yl)-1-((5-methoxy-7-methyl-1H-indol-4-yl)methyl)piperidin-2-yl)benzoic acid], the 50% inhibitory concentration (IC50) is 50 to 100 nM at human C3bBb (setting [3]) and 300 to 500 nM in assay [1].

As to `COc1cc(C)c2[nH]ccc2c1CN1CC[C@H](CC2CC2)C[C@H]1c1ccc(C(=O)O)cc1` [Example 44, 4-((2S,4S)-4-(cyclopropylmethyl)-1-((5-methoxy-7-methyl-1H-indol-4-yl)methyl)piperidin-2-yl)benzoic acid], the IC50 at human C3bBb (setting [2]) is < 10 nM; in assay [1] it was < 100 nM.
